“Also recorded” adds a separate entry of the source.
Target: T1, sACE (Homo sapiens, UniProt P12821)
T1 construct: made in house; host or cells: CHO cells; purified from cell lysate
Assay: Interdomain cooperativity in hydrolysis of Aβ substrates
Format: biochemical
Procedure: Mixtures were separated on a Poroshell 120 EC‐18 column with a 2.7 μm pore size. The reaction consists of 25 μL substrate incubated with 25 μL enzyme for 15 min at 37 °C and was stopped with the addition of 10 μL of 0.25% trifluoroacetic acid (TFA). The total reaction (60 μL) was cleared of contaminants on a spin column (GHP Nanosep® MF Centrifugal Device 0.45 μm pore size) and run on the HPLC. Kinetic parameters were determined through the fitting of initial rates to the Michaelis–Menten equation with […] PRISM software (v 4.01, GraphPad Prism®).
The reaction was incubated for 15 min at 37 °C and stopped with the addition of 10 μL 0.25% TFA to make up a total volume of 60 μL. The reactions were performed in triplicate and 50 μL injections were analysed via HPLC (Agilent Technologies) across a gradient of 0.1% TFA and 2% ACN in water to 0.1% TFA, 95% ACN. A calibration curve was set up to convert the product peak area to picomoles product formed, through the complete hydrolysis of the substrate with the N‐domain. […] Kinetic constants were calculated using the Michaelis–Menten method using […] […]
The assay is a modified form of the continuous assay 7 where the assay is set up on ice in triplicate in a 96‐well plate. The baseline fluorescence was at time zero and then the substrate was incubated at 37 °C and fluorescence read at the 45 min time point on a Cary Eclipse spectrofluorimeter (Varian Inc.) at λex = 320 nm and λem = 420 nm. Again, kinetic constants were calculated using the Michaelis–Menten method with […] […] The detected fluorescence was converted to picamoles product formed through the slope of a calibration curve of Abz‐Gly. […]
An alternative fluorogenic peptide, Abz‐FRHDSG‐(NT) (BIOPEP™ South Africa) was assayed, with 100 μL enzyme and 100 μL substrate (at a final enzyme concentration within 10% hydrolysis of total substrate; see Table 3) as above, in 96‐well plates. The samples were read at the 5 min time point on a Cary Eclipse spectrofluorimeter (Varian Inc.) at λex = 320 nm and λem = 420 nm. Kinetic constants, inner filter effect and standard curves were calculated as above.

T1 sequence (P12821 30-1306): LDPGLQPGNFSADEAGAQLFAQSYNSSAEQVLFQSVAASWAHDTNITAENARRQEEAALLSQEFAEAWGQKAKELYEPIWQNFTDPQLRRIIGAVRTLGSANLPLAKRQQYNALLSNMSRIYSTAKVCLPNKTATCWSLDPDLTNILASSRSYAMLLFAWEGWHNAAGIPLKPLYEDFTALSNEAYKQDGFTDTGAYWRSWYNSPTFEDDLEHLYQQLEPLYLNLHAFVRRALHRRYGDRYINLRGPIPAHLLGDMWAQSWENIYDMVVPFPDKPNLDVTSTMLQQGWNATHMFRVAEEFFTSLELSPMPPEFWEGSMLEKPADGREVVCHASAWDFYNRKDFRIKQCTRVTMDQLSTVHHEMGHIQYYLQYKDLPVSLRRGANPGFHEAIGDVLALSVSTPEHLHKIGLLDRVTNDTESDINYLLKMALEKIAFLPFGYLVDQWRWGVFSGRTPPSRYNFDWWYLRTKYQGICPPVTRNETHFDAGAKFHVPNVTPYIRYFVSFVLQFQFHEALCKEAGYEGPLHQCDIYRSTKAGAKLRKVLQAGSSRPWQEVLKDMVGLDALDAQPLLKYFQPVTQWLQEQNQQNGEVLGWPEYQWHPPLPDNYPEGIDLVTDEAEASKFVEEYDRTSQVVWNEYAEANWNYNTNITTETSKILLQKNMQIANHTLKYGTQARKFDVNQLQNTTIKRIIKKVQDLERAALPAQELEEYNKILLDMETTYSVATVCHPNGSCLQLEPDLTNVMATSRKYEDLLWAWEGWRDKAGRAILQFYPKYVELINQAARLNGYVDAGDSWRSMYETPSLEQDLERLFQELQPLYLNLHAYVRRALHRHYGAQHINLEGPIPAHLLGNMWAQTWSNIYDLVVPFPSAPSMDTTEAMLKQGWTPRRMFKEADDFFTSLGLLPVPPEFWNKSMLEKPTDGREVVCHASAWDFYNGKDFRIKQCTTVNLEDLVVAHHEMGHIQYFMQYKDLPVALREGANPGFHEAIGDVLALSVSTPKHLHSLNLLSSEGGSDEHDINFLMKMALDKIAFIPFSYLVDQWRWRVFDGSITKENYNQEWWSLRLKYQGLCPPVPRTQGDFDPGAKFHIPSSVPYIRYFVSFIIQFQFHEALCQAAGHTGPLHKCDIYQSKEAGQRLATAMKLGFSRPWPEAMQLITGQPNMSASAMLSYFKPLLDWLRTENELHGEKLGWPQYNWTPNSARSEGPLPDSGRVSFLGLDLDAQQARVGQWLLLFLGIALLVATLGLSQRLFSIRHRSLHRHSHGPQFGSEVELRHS

Substance: Abz‐FRHDSG‐(NT) [Aβ(4–10)Y, fluorogenic Aβ(4–10) peptide with NT quencher substituting for Tyr]
- interdomain cooperativity, full‐length constructs (examination of the N‐sACE and C‐sACE constructs): positive domain cooperativity; also recorded: a positive form of cooperativity
- interdomain cooperativity, truncated domains taken into account (truncated domains versus sACE): a negative effect on the activity of sACE
